Data published in patent US7585976B2, “Hemiasterlin derivatives and uses thereof” (priority 2002, dated 2009).

experiment: Screening profile of desired properties (growth inhibition, MDR, cytotoxicity, mouse serum stability, mitotic block reversibility, xenografts); details: properties (i)-(vii)
Protocol: In certain embodiments, compounds of the invention were tested for in vitro and in vivo activity. Screening methods included standard in vitro cell growth inhibition assays using a panel of human cancer cell lines, a U937 (ATCC accession number CRL 1593) mitotic block reversibility assay, mouse serum stability assay, MDR assay, and cytotoxicity assay. In certain other emdodiments, compounds of the invention were evaluated in tumor xenograft in vivo growth inhibition assays.

Compound	desired properties (growth inhibition IC50, resistance ratio, cytotoxicity in non-dividing cells, mouse serum stability, reversibility ratio, tumor regression, T/C)
C/C(=C\[C@H](C(C)C)N(C)C(=O)[C@@H](NC(=O)[C@H]1CCCCN1C(C)C(C)C)C(C)(C)C)C(=O)O (single isomer, unassigned) [ER-808662]	exhibiting desired properties
CN[C@H](C(=O)N[C@H](C(=O)N(C)[C@H](/C=C(\C)C(=O)N1CCC[C@H]1C(=O)OC)C(C)C)C(C)(C)C)C(C)(C)c1ccccc1 [ER-805736]	exhibiting desired properties
CN[C@H](C(=O)N[C@H](C(=O)N(C)[C@H](/C=C(\C)C(=O)O)C(C)C)C(C)(C)C)C(C)(C)c1ccc(OCc2ccccc2)cc1 [ER-805913]	exhibiting desired properties
CN[C@H](C(=O)N[C@H](C(=O)N(C)[C@H](CN(C)CC(=O)N1CCC[C@H]1C(=O)OC)C(C)C)C(C)(C)C)C(C)(C)c1ccccc1 [ER-806925]	exhibiting desired properties
C/C(=C\[C@H](C(C)C)N(C)C(=O)[C@@H](NC(=O)[C@H]1CCCCN1C)C(C)(C)C)C(=O)O [ER-807102]	exhibiting desired properties
CN[C@H](C(=O)N[C@H](C(=O)N(C)[C@H](CN1CCC[C@H]1C(=O)N1CCC[C@H]1C(N)=O)C(C)C)C(C)(C)C)C(C)(C)c1ccccc1 [ER-807328]	exhibiting desired properties
CCC(CC)(NC)C(=O)N[C@H](C(=O)N(C)[C@H](/C=C(\C)C(=O)O)C(C)C)C(C)(C)C [ER-807850]	exhibiting desired properties
CC(C)OC(=O)[C@@H]1CCCN1C(=O)[C@@H]1CCCN1C[C@H](C(C)C)N(C)C(=O)[C@@H](NC(=O)C1CCCCN1C)C(C)(C)C (some centres unmarked) [ER-807904]	exhibiting desired properties
C/C(=C\[C@H](C(C)C)N(C)C(=O)[C@@H](NC(=O)[C@H]1CCCCN1C(C)C)C(C)(C)C)C(=O)O [ER-807974]	exhibiting desired properties
CCC(C)N1CCCC[C@@H]1C(=O)N[C@H](C(=O)N(C)[C@H](/C=C(\C)C(=O)O)C(C)C)C(C)(C)C (some centres unmarked) [ER-808368]	exhibiting desired properties
CCC(C)N1CCCC[C@@H]1C(=O)N[C@H](C(=O)N(C)[C@H](/C=C(\C)C(=O)O)C(C)C)C(C)C (some centres unmarked) [ER-808824]	exhibiting desired properties
